Inhibition data for eight compounds are collected here from patent US20230011571A1, “SMALL MOLECULE FURIN INHIBITORS FOR TREATING INFECTIOUS DISEASES” (BP Asset V, Inc., priority 2019, published 2023).

Format in all cases: cell-based
The test system of one assay is dengue virus (DENV). Briefly: microbe, parasite or virus in culture. The following applies: Dengue virus, Vero, 120 h, read-out: Percent viral inhibition DENY.
The test system of a further assay is Marburg virus (MARV). The assay can be described thus: organism not typed. The following applies: Vero, 72 h, read-out: Percent viral inhibition MARV.
The test system of assay [1] is Chikungunya virus (CHIKV). The assay can be described thus: microbe, parasite or virus in culture. The note with it: Chikungunya virus, Vero, 48 h, read-out: Percent viral inhibition CHKV.

Take `CNC(=O)CCN1CCN(c2ncc(Oc3cc(CN4CCC(CNC(C)=O)CC4)cc(-c4cc(Cl)cc(Cl)c4)n3)cn2)CC1` [Example 94, 3-(4-(5-((4-((4-(acetamidomethyl)piperidin-1-yl)methyl)-6-(3,5-dichlorophenyl)pyridin-2-yl)oxy)pyrimidin-2-yl)piperazin-1-yl)-N-methylpropanamide]: the inhibition at 1 µM worked out at 41.5% with dengue virus (DENV), 66% in the assay on Marburg virus (MARV) and 31.3% in assay [1].

Turning to `O=C(O)CC1CCN(Cc2cc(Oc3cnc(N4CCCNCC4)nc3)nc(-c3cc(Cl)cc(Cl)c3)c2)CC1` [Example 132, 2-(1-((2-((2-(1,4-diazepan-1-yl)pyrimidin-5-yl)oxy)-6-(3,5-dichlorophenyl)pyridin-4-yl)methyl)piperidin-4-yl) acetic acid], the inhibition at 1 µM was 32.8% in the assay on dengue virus (DENV), 46.8% in the assay with Marburg virus (MARV) and 35.2% in assay [1].

As to `CC(=O)NCC1CCN(Cc2cc(Oc3ccc(N4CC[N+](C)(C)CC4)nc3)nc(-c3cc(Cl)cc(Cl)c3)c2)CC1` [Example 181, 4-(5-((4-((4-(acetamidomethyl)piperidin-1-yl)methyl)-6-(3,5-dichlorophenyl)pyridin-2-yl)oxy)pyridin-2-yl)-1,1-dimethylpiperazin-1-ium], the figures for the inhibition at 1 µM (in the assay with dengue virus (DENV); with Marburg virus (MARV); in assay [1]) were 49.1%, 12.5% and 11.7%, respectively.

As for `CCC(=O)NCC1CCN(Cc2cc(Oc3cnc(N4CCN(CCC(C)C(=O)O)CC4)nc3)nc(-c3cc(Cl)cc(Cl)c3)c2)CC1` (stereo not drawn) [Example 59, 4-(4-(5-((6-(3,5-dichlorophenyl)-4-((4-(propionamidomethyl)piperidin-1-yl)methyl)pyridin-2-yl)oxy)pyrimidin-2-yl)piperazin-1-yl)-2-methylbutanoic acid], the inhibition at 1 µM was determined as 53.7% with dengue virus (DENV), 57.5% with Marburg virus (MARV) and 35.1% in assay [1].

For `CN1CCN(c2ncc(Oc3cc(CN4CCO[C@H](CCO)CC4)cc(-c4cc(Cl)cc(Cl)c4)n3)cn2)CC1` [Example 153, (S)-2-(4-((2-(3,5-dichlorophenyl)-6-((2-(4-methylpiperazin-1-yl)pyrimidin-5-yl)oxy)pyridin-4-yl)methyl)-1,4-oxazepan-7-yl)ethanol], the inhibition at 1 µM is 41.5% in the assay with dengue virus (DENV), 56.8% with Marburg virus (MARV) and 14.1% in assay [1].

For the compound `O=C(O)CC1CCN(Cc2cc(Oc3cnc(N4CCNC5(CC5)C4)nc3)nc(-c3cc(Cl)cc(Cl)c3)c2)CC1` [Example 164, 2-(1-((2-((2-(4,7-diazaspiro[2.5]octan-7-yl)pyrimidin-5-yl)oxy)-6-(3,5-dichlorophenyl)pyridin-4-yl)methyl)piperidin-4-yl)acetic acid], the inhibition at 1 µM in the assay with dengue virus (DENV) came to 45.5%; with Marburg virus (MARV) it was 36.1%; in assay [1] it was 34.6%.

Take `CNC(=O)NCC1CCN(Cc2cc(Oc3ccc(N4CCN(CCO)CC4)nc3)nc(-c3cc(Cl)cc(Cl)c3)c2)CC1` [Example 40, 1-((1-((2-(3,5-dichlorophenyl)-6-((6-(4-(2-hydroxyethyl)piperazin-1-yl)pyridin-3-yl)oxy)pyridin-4-yl)methyl)piperidin-4-yl)methyl)-3-methylurea]: the inhibition at 1 µM in the assay with dengue virus (DENV) amounted to 0%; with Marburg virus (MARV), 0%; in assay [1] it was 3.24%.

Consider `CC(=O)NCC1CCN(Cc2cc(Oc3cnc(N4CCN(C(C)CCS(C)(=O)=O)CC4)nc3)nc(-c3cc(F)cc(Cl)c3)c2)CC1` (stereo not drawn) [Example 372, N-((1-((2-(3-chloro-5-fluorophenyl)-6-((2-(4-(4-(methylsulfonyl)butan-2-yl)piperazin-1-yl)pyrimidin-5-yl)oxy)pyridin-4-yl)methyl)piperidin-4-yl)methyl)acetamide], for which the inhibition at 1 µM with dengue virus (DENV) stood at 81.8%; with Marburg virus (MARV), 45.3%; in assay [1], 18.2%.

Broadly, the inhibition is the drop in the measured response relative to a control, in per cent.
